Reference: article PMC8076288, “Effect of respiratory inhibitors and quinone analogues on the aerobic electron transport system of Eikenella corrodens” (Scientific Reports, 2021)

Columns and labels:
[1] = molecular target: T1, bc1 complex (complex III) (Eikenella corrodens, UniProt V7IIL5); assay: polarographic O2 uptake (Clark electrode), succinate oxidase of membranes; assay type: biochemical; details: succinate as substrate, 34 °C; read-out is the whole succinate respiration
T1 construct: gene HMPREF1177_00380; native complex in isolated membrane particles, not purified; with Ubiquinol-cytochrome c reductase iron-sulfur subunit; Cytochrome c1
T1 sequence (V7IIL5 1-530): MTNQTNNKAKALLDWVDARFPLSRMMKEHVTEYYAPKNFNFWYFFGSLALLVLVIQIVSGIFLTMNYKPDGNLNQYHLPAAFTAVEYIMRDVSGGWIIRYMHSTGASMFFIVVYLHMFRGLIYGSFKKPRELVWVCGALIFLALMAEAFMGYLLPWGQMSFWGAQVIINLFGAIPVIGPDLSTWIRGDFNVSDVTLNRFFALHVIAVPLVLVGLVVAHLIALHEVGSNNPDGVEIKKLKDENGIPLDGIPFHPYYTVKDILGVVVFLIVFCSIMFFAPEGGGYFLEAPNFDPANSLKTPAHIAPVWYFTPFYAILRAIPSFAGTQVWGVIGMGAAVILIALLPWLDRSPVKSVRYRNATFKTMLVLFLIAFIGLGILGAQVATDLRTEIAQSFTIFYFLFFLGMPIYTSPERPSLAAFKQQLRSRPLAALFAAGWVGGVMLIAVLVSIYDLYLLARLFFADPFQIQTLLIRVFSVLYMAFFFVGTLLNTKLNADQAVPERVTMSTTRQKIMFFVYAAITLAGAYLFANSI
T1 sequence (V7IHH9 1-197 partner): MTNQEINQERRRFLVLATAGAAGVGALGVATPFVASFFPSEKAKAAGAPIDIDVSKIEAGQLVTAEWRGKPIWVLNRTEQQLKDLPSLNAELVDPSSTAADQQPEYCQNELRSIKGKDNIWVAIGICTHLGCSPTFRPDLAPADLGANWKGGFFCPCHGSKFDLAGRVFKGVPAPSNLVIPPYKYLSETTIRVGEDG

[2] = molecular target: T2, dissimilatory nitrate reductase, Nar (Eikenella corrodens, UniProt V7IBI8); assay: oxidation of reduced methyl viologen at […] nm, membranes; assay type: biochemical; details: 1 mM dithionite-reduced methyl viologen, 2 mM nitrate, pH 7.4, anaerobic
T2 construct: gene HMPREF1177_02096; with Respiratory nitrate reductase beta subunit; Respiratory nitrate reductase gamma subunit
T2 sequence (V7IA22 entry or part of it): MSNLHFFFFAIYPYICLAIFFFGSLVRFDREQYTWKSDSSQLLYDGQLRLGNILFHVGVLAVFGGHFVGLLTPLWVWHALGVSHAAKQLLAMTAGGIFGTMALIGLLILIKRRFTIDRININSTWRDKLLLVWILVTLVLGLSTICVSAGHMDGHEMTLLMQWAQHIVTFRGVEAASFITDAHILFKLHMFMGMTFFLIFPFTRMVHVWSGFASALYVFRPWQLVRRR
T2 sequence (V7IBP6 entry or part of it, further chain): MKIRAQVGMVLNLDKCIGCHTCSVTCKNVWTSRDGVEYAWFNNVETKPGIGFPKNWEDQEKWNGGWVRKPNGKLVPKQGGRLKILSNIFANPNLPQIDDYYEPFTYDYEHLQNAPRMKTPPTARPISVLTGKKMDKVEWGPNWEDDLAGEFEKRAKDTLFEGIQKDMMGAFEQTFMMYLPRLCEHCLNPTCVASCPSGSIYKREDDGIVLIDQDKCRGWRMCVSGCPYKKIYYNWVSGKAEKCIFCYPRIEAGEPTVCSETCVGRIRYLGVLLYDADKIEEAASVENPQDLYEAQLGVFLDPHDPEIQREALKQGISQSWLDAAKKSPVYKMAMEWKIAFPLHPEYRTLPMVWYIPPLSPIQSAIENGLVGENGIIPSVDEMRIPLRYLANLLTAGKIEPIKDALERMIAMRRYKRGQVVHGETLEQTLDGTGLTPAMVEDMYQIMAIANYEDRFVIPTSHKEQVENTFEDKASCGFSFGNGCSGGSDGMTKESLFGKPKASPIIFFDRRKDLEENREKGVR
T2 sequence (V7IBI8 entry or part of it): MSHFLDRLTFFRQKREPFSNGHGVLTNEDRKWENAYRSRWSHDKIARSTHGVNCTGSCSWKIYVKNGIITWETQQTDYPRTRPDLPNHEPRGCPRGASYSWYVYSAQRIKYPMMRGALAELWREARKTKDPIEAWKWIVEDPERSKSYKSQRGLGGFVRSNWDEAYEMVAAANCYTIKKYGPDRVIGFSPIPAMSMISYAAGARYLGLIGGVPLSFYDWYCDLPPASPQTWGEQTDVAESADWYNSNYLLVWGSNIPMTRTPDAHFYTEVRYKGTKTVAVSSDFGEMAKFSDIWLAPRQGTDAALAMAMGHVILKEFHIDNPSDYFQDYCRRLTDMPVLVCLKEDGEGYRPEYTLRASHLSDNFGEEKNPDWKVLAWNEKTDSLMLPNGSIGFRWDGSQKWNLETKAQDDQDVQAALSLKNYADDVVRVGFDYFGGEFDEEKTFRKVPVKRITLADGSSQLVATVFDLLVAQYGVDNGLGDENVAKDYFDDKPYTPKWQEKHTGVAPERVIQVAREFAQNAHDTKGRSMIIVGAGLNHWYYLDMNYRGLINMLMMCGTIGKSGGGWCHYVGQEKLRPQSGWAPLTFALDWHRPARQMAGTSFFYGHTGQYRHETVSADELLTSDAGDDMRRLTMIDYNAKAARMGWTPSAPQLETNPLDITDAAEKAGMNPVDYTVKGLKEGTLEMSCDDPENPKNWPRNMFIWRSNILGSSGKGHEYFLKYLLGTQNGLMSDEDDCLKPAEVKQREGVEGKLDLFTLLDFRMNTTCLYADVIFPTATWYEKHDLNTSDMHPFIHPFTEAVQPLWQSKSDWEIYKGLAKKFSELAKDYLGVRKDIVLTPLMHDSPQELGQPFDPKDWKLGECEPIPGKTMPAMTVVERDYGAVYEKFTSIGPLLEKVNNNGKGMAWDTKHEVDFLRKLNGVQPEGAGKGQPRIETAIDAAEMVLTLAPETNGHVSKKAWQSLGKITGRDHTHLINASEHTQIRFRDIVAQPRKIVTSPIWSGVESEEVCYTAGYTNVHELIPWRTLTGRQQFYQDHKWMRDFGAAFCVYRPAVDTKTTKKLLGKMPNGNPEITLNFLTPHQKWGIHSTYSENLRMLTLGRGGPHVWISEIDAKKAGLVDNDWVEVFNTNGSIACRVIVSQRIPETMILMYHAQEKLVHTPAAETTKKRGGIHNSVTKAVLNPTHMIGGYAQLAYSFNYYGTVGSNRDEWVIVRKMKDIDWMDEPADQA

Row | Compound | IC50 [1] [µM] | oxidation of reduced methyl viologen at 600 nm, membranes [2]
1 | CCCCCCCc1cc(O)c2ccccc2[n+]1[O-] [HQNO, 2-heptyl-4-hydroxyquinoline-N-oxide] | 40 | –
2 | O=[N+]([O-])O [nitrate] | – | The reaction was started by the injection of an anaerobic solution of potassium nitrate
3 | antimycin A3 | 20 | –
